Tests used:
[1] = system: barnyardgrass; experiment: Test A preemergence; type: in vivo, Echinochloa crus-galli; conditions: Echinochloa crus-galli, pre-emergence, 240 h, 0 to 100 scale (0 no effect, 100 complete control), read-out: Plant response rating, Barnyardgrass
How it was run: (§1)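 Pre- and postemergence spray tests in a loam soil–sand mixture: seeded soil received a directed spray, while established seedlings 2–10 cm high at the one- to two-leaf stage were treated over the top. Compounds were carried in non-phytotoxic solvent with surfactant.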

[2] = system: barnyardgrass; experiment: Test A postemergence; type: in vivo, Echinochloa crus-galli; conditions: Echinochloa crus-galli, post-emergence, 240 h, 0 to 100 scale (0 no effect, 100 complete control), approx. 10 d, read-out: Plant response rating, Barnyardgrass
How it was run: as §1

[3] = system: foxtail, giant; experiment: Test A postemergence; type: in vivo, Setaria faberii; conditions: Setaria faberi, post-emergence, 240 h, 0 to 100 scale (0 no effect, 100 complete control), approx. 10 d, read-out: Plant response rating, Foxtail, Giant
How it was run: as §1

[4] = system: pigweed; experiment: Test A postemergence; type: in vivo, Amaranthus retroflexus; conditions: Amaranthus retroflexus, post-emergence, 240 h, 0 to 100 scale (0 no effect, 100 complete control), approx. 10 d, read-out: Plant response rating, Pigweed
How it was run: as §1

[5] = system: wheat; experiment: Test A postemergence; type: in vivo, Triticum aestivum; conditions: Triticum aestivum, post-emergence, 240 h, 0 to 100 scale (0 no effect, 100 complete control), approx. 10 d, read-out: Plant response rating, Wheat
How it was run: as §1

[6] = system: corn; experiment: Test A postemergence; type: in vivo, Zea mays; conditions: Zea mays, post-emergence, 240 h, 0 to 100 scale (0 no effect, 100 complete control), approx. 10 d
How it was run: as §1

[7] = system: sedge, umbrella; experiment: Test B flooded paddy test; type: in vivo, Cyperus difformis; conditions: Cyperus difformis, 360 h, 125 g ai/ha, applied to paddy water at 2-leaf stage, visual rating after 13 to 15 d, scale 0 (no effect) to 100 (complete control), read-out: Plant response rating, Sedge, Umbrella, Flood
How it was run: (§2)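 Pots were flooded to 3 cm above the soil at treatment, and compounds were applied directly into the paddy water. That depth was held throughout. After 13 to 15 d in a greenhouse, plants were rated visually against untreated controls.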

[8] = system: ducksalad; experiment: Test B flooded paddy test; type: in vivo, Heteranthera limosa; conditions: Heteranthera limosa, 360 h, 125 g ai/ha, applied to paddy water at 2-leaf stage, visual rating after 13 to 15 d, scale 0 (no effect) to 100 (complete control), read-out: Plant response rating, Ducksalad, Flood
How it was run: as §2

[9] = system: barnyardgrass; experiment: Test B flooded paddy test; type: in vivo, Echinochloa crus-galli; conditions: Echinochloa crus-galli, 360 h, 125 g ai/ha, applied to paddy water at 2-leaf stage, visual rating after 13 to 15 d, scale 0 (no effect) to 100 (complete control), read-out: Plant response rating, Barnyardgrass, Flood
How it was run: as §2

[10] = system: ryegrass, Italian; experiment: Test C postemergence; type: in vivo, Lolium multiflorum
How it was run: (§3)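 Seeds were planted in loam soil plus sand and sprayed preemergence. In parallel, potted plants in a peat-based medium were sprayed postemergence at 2 to 18 cm (1- to 4-leaf stage). Compounds were formulated in non-phytotoxic solvent with surfactant.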

[11] = system: corn; experiment: Test C postemergence; type: in vivo, Zea mays
How it was run: as §3

[12] = system: crabgrass, large; experiment: Test C postemergence; type: in vivo, Digitaria sanguinalis
How it was run: as §3

[13] = system: foxtail, giant; experiment: Test C postemergence; type: in vivo, Setaria faberii
How it was run: as §3

[14] = system: morningglory; experiment: Test C postemergence; type: in vivo, Ipomoea coccinea
How it was run: as §3

[15] = system: nutsedge, yellow; experiment: Test C postemergence; type: in vivo, Cyperus esculentus
How it was run: as §3

[16] = system: ragweed; experiment: Test C postemergence; type: in vivo, Ambrosia elatior
How it was run: as §3

[17] = system: barnyardgrass; experiment: Test C postemergence; type: in vivo, Echinochloa crus-galli
How it was run: as §3

[18] = system: oilseed rape; experiment: Test C postemergence; type: in vivo, Brassica napus; conditions: Oilseed Rape
How it was run: as §3

[19] = system: waterhemp; experiment: Test C postemergence; type: in vivo, Amaranthus rudis
How it was run: as §3

[20] = system: velvetleaf; experiment: Test C postemergence; type: in vivo, Abutilon theophrasti
How it was run: as §3

[21] = system: kochia; experiment: Test C postemergence; type: in vivo, Kochia scoparia
How it was run: as §3

## COc1nc(-c2ccc(F)cc2)nn1Cc1ccnc(C(F)(F)F)c1 [Compound 9, 4-[[3-(4-fluorophenyl)-5-methoxy-1H-1,2,4-triazol-1-yl]methyl]-2-(trifluoromethyl)pyridine]
[1]; 125 g ai/ha
  pest or weed control at 125 g/ha: 80%
[1]; 500 g ai/ha, approx. 10 d
  pest or weed control at 500 g/ha: 100%
[2]; 125 g ai/ha
  pest or weed control at 125 g/ha: 70%
[2]; 500 g ai/ha
  pest or weed control at 500 g/ha: 90%
[3]; 125 g ai/ha
  pest or weed control at 125 g/ha: 80%
[3]; 500 g ai/ha
  pest or weed control at 500 g/ha: 100%
[4]; 125 g ai/ha
  pest or weed control at 125 g/ha: 100%
[4]; 500 g ai/ha
  pest or weed control at 500 g/ha: 100%
[5]; 125 g ai/ha
  plant injury at 125 g/ha: 10%
[5]; 500 g ai/ha
  plant injury at 500 g/ha: 10%
[6]; 125 g ai/ha
  Corn plant response rating (crop injury, 0 = no effect, 100 = complete kill) at 125 g/ha: 40%
[6]; 500 g ai/ha
  Corn plant response rating (crop injury, 0 = no effect, 100 = complete kill) at 500 g/ha: 80%
[7]
  pest or weed control at 125 g/ha: 80%
[8]
  pest or weed control at 125 g/ha: 20%
[9]
  pest or weed control at 125 g/ha: 0%
[10]; 16 g ai/ha
  Plant response rating (scale of 0 to 100 where 0 is no effect and 100 is complete control): 0
[10]; 31 g ai/ha
  Plant response rating (scale of 0 to 100 where 0 is no effect and 100 is complete control): 5
[10]; 62 g ai/ha
  Plant response rating (scale of 0 to 100 where 0 is no effect and 100 is complete control): 5
[10]; 125 g ai/ha
  Plant response rating (scale of 0 to 100 where 0 is no effect and 100 is complete control): 5
[11]; 16 g ai/ha
  Plant response rating (scale of 0 to 100 where 0 is no effect and 100 is complete control): 10
[11]; 31 g ai/ha
  Plant response rating (scale of 0 to 100 where 0 is no effect and 100 is complete control): 20
[11]; 62 g ai/ha
  Plant response rating (scale of 0 to 100 where 0 is no effect and 100 is complete control): 35
[11]; 125 g ai/ha
  Plant response rating (scale of 0 to 100 where 0 is no effect and 100 is complete control): 20
[12]; 16 g ai/ha
  Plant response rating (scale of 0 to 100 where 0 is no effect and 100 is complete control): 10
[12]; 31 g ai/ha
  Plant response rating (scale of 0 to 100 where 0 is no effect and 100 is complete control): 10
[12]; 62 g ai/ha
  Plant response rating (scale of 0 to 100 where 0 is no effect and 100 is complete control): 25
[12]; 125 g ai/ha
  Plant response rating (scale of 0 to 100 where 0 is no effect and 100 is complete control): 25
[13]; 16 g ai/ha
  Plant response rating (scale of 0 to 100 where 0 is no effect and 100 is complete control): 10
[13]; 31 g ai/ha
  Plant response rating (scale of 0 to 100 where 0 is no effect and 100 is complete control): 15
[13]; 62 g ai/ha
  Plant response rating (scale of 0 to 100 where 0 is no effect and 100 is complete control): 15
[13]; 125 g ai/ha
  Plant response rating (scale of 0 to 100 where 0 is no effect and 100 is complete control): 20
[14]; 16 g ai/ha
  Plant response rating (scale of 0 to 100 where 0 is no effect and 100 is complete control): 70
[14]; 31 g ai/ha
  Plant response rating (scale of 0 to 100 where 0 is no effect and 100 is complete control): 85
[14]; 62 g ai/ha
  Plant response rating (scale of 0 to 100 where 0 is no effect and 100 is complete control): 80
[14]; 125 g ai/ha
  Plant response rating (scale of 0 to 100 where 0 is no effect and 100 is complete control): 75
[15]; 16 g ai/ha
  Plant response rating (scale of 0 to 100 where 0 is no effect and 100 is complete control): 0
[15]; 31 g ai/ha
  Plant response rating (scale of 0 to 100 where 0 is no effect and 100 is complete control): 0
[15]; 62 g ai/ha
  Plant response rating (scale of 0 to 100 where 0 is no effect and 100 is complete control): 0
[15]; 125 g ai/ha
  Plant response rating (scale of 0 to 100 where 0 is no effect and 100 is complete control): 5
[16]; 16 g ai/ha
  Plant response rating (scale of 0 to 100 where 0 is no effect and 100 is complete control): 15
[16]; 31 g ai/ha
  Plant response rating (scale of 0 to 100 where 0 is no effect and 100 is complete control): 25
[16]; 62 g ai/ha
  Plant response rating (scale of 0 to 100 where 0 is no effect and 100 is complete control): 25
[16]; 125 g ai/ha
  Plant response rating (scale of 0 to 100 where 0 is no effect and 100 is complete control): 50
[17]; 16 g ai/ha
  Plant response rating (scale of 0 to 100 where 0 is no effect and 100 is complete control): 5
[17]; 31 g ai/ha
  Plant response rating (scale of 0 to 100 where 0 is no effect and 100 is complete control): 10
[17]; 62 g ai/ha
  Plant response rating (scale of 0 to 100 where 0 is no effect and 100 is complete control): 10
[17]; 125 g ai/ha
  Plant response rating (scale of 0 to 100 where 0 is no effect and 100 is complete control): 20
[18]; 16 g ai/ha
  Plant response rating (scale of 0 to 100 where 0 is no effect and 100 is complete control): 40
[18]; 31 g ai/ha
  Plant response rating (scale of 0 to 100 where 0 is no effect and 100 is complete control): 55
[18]; 62 g ai/ha
  Plant response rating (scale of 0 to 100 where 0 is no effect and 100 is complete control): 80
[18]; 125 g ai/ha
  Plant response rating (scale of 0 to 100 where 0 is no effect and 100 is complete control): 70
[19]; 16 g ai/ha
  Plant response rating (scale of 0 to 100 where 0 is no effect and 100 is complete control): 70
[19]; 31 g ai/ha
  Plant response rating (scale of 0 to 100 where 0 is no effect and 100 is complete control): 65
[19]; 62 g ai/ha
  Plant response rating (scale of 0 to 100 where 0 is no effect and 100 is complete control): 80
[19]; 125 g ai/ha
  Plant response rating (scale of 0 to 100 where 0 is no effect and 100 is complete control): 85
[20]; 16 g ai/ha
  Plant response rating (scale of 0 to 100 where 0 is no effect and 100 is complete control): 25
[20]; 31 g ai/ha
  Plant response rating (scale of 0 to 100 where 0 is no effect and 100 is complete control): 35
[20]; 62 g ai/ha
  Plant response rating (scale of 0 to 100 where 0 is no effect and 100 is complete control): 35
[20]; 125 g ai/ha
  Plant response rating (scale of 0 to 100 where 0 is no effect and 100 is complete control): 35
[21]; 16 g ai/ha
  Plant response rating (scale of 0 to 100 where 0 is no effect and 100 is complete control): 95
[21]; 31 g ai/ha
  Plant response rating (scale of 0 to 100 where 0 is no effect and 100 is complete control): 90
[21]; 62 g ai/ha
  Plant response rating (scale of 0 to 100 where 0 is no effect and 100 is complete control): 90
[21]; 125 g ai/ha
  Plant response rating (scale of 0 to 100 where 0 is no effect and 100 is complete control): 90
